# Data reported in ChEMBL document CHEMBL4392886, “Antibacterial and Antibiofilm Activity of Flavonoid and Saponin Derivatives from Atriplex tatarica against Pseudomonas aeruginosa” (2019).
# The source made the active and inactive calls. No cut-off for these calls is given here.
# Columns and labels:
# Assay type in all cases: functional
# [1] = system: Pseudomonas aeruginosa; test: Antibiofilm activity against Pseudomonas aeruginosa PAO1 assessed as inhibition of biofilm formation at 0.25 times MIC incubated for 24 hrs by crystal violet staining based ELISA method
# [2] = system: Pseudomonas aeruginosa; test: Bactericidal activity against Pseudomonas aeruginosa ATCC 27853 by microdilution method
# [3] = system: Pseudomonas aeruginosa; test: Antibiofilm activity against Pseudomonas aeruginosa PAO1 assessed as inhibition of biofilm formation at 0.125 times MIC incubated for 24 hrs by crystal violet staining based ELISA method
# [4] = system: Pseudomonas aeruginosa; test: Antibacterial activity against Pseudomonas aeruginosa ATCC 27853 by microdilution method
# [5] = system: Pseudomonas aeruginosa; test: Antibiofilm activity against Pseudomonas aeruginosa PAO1 assessed as inhibition of biofilm formation at 0.5 times MIC incubated for 24 hrs by crystal violet staining based ELISA method
# [6] = system: Listeria monocytogenes; test: Antibacterial activity against Listeria monocytogenes NCTC 7973 by microdilution method
# [7] = system: Micrococcus flavus; test: Antibacterial activity against Micrococcus flavus ATCC 10240 by microdilution method
# [8] = system: Micrococcus flavus; test: Bactericidal activity against Micrococcus flavus ATCC 10240 by microdilution method
# [9] = system: Escherichia coli; test: Bactericidal activity against Escherichia coli ATCC 35210 by microdilution method
# [10] = system: Escherichia coli; test: Antibacterial activity against Escherichia coli ATCC 35210 by microdilution method
# [11] = system: Listeria monocytogenes; test: Bactericidal activity against Listeria monocytogenes NCTC 7973 by microdilution method
SMILES,MIC [4] [µM],MIC [6] [µM],MIC [7] [µM],MIC [10] [µM],inhibition (INH) [1] [%],MBC [2] [µM],inhibition (INH) [3] [%],inhibition (INH) [5] [%],MBC [8] [µM],MBC [9] [µM],inhibition [3],MBC [11] [µM]
CC1(C)[C@@H](O[C@H]2OC[C@H](O)[C@H](O)[C@H]2O[C@H]2O[C@H](CO)[C@@H](O)[C@H](O)[C@H]2OS(=O)(=O)O)CC[C@]2(C)[C@H]3CC=C4[C@@H]5C[C@@](C)(CO)CC[C@]5(C(=O)O[C@H]5O[C@H](CO)[C@@H](O)[C@H](O)[C@H]5O)CC[C@@]4(C)[C@]3(C)CC[C@@H]12,496,–,–,–,21.9,744,12.5,26.5,–,–,–,–
CC1(C)[C@@H](O[C@H]2OC[C@H](O)[C@H](O)[C@H]2O[C@H]2O[C@H](CO)[C@@H](O)[C@H](O)[C@H]2O[C@H]2O[C@H](CO)[C@@H](O)[C@H](O)[C@H]2O)CC[C@]2(C)[C@H]3CC=C4[C@@H]5C[C@@](C)(C=O)CC[C@]5(C(=O)O[C@H]5O[C@H](CO)[C@@H](O)[C@H](O)[C@H]5O)CC[C@@]4(C)[C@]3(C)CC[C@@H]12,689,1150,919,919,39.4,1380,–,53.4,1380,1380,inactive,1840
CN[C@@H]1[C@H](O[C@H]2[C@H](O[C@H]3[C@H](O)[C@@H](O)[C@H](N=C(N)N)[C@@H](O)[C@@H]3N=C(N)N)O[C@@H](C)[C@]2(O)C=O)O[C@@H](CO)[C@H](O)[C@H]1O [STREPTOMYCIN],344,344,344,344,74.6,516,89.3,52.5,516,516,–,516
COc1cc(/C=C/C(=O)OC[C@@]2(O)CO[C@@H](O[C@H]3[C@@H](Oc4c(-c5ccc(O)c(O)c5)oc5cc(O)c(OC)c(O)c5c4=O)O[C@H](CO)[C@@H](O)[C@@H]3O)[C@@H]2O)ccc1O,312,935,312,499,4.3,623,–,20.1,623,623,inactive,1250
CC1(C)[C@@H](O[C@H]2OC[C@H](O)[C@H](O)[C@H]2O[C@H]2O[C@H](CO)[C@@H](O)[C@H](O)[C@H]2OS(=O)(=O)O)CC[C@]2(C)[C@H]3CC=C4[C@@H]5C[C@@](C)(C=O)CC[C@]5(C(=O)O[C@H]5O[C@H](CO)[C@@H](O)[C@H](O)[C@H]5O)CC[C@@]4(C)[C@]3(C)CC[C@@H]12,994,1990,596,497,45.9,1190,7.2,56.6,1190,596,–,2490

# Continued, in another order:
MIC [4] [µM],MIC [6] [µM],MIC [7] [µM],MIC [10] [µM],SMILES,inhibition (INH) [1] [%],MBC [2] [µM],inhibition (INH) [3] [%],inhibition (INH) [5] [%],MBC [8] [µM],MBC [9] [µM],inhibition [3],MBC [11] [µM]
296,886,296,591,COc1cc(/C=C/C(=O)O[C@H]2[C@H](O[C@H]3[C@@H](Oc4c(-c5ccc(O)c(O)c5)oc5cc(O)c(OC)c(O)c5c4=O)O[C@H](CO)[C@@H](O)[C@@H]3O)O[C@@H](C(=O)O)[C@@H](O)[C@@H]2O)ccc1O,26.2,473,1.8,43,473,1180,–,1180
2150,1150,716,716,CC1(C)S[C@@H]2[C@H](NC(=O)[C@H](N)c3ccccc3)C(=O)N2[C@H]1C(=O)O [AMPICILLIN],58.9,3580,85.2,65.3,1150,1430,–,1430
399,639,399,399,COc1c(O)cc2oc(-c3ccc(O)c(O)c3)c(O[C@H]3O[C@H](CO)[C@@H](O)[C@H](O)[C@H]3O[C@@H]3OC[C@](O)(CO)[C@H]3O)c(=O)c2c1O,12.2,639,–,58.1,639,639,inactive,1200
